Like-named read-outs stand apart in the source and are kept apart here.
Tests used:
Assay type in all cases: cell-based
HEK293 cells [1] = experiment: Cell cycle analysis by FACS of HEK293 cells
Experimental: Fluorescence-activated cell sorting (FACS) analysis was used to examine the cell cycle state when the cells were incubated with compounds of formula (I) as well as several control compounds, including DMSO, noscapine (a known G2/M inhibitor), and colchicine (a known G2/M inhibitor).
In particular, HEK293 cells were cultured in DMEM media (Celigro) supplemented with 10% Fetal Bovine Serum (Tissue Culture Biologicals) and 1× Penicillin/Streptomycin/Glutamine (Gibco). The cells were grown at 37° C. with 5% CO2, plated in six-well plates at 2.5×10^6 cells/well, and treated for 16 to 24 hrs with the compounds at the concentrations shown in Table 1, below. The cells were then triturated off the bottom of the wells, washed 1× with PBS, then fixed with 70% ethanol, and stored at 4° C. before staining and FACS analysis.
The DNA content of cells was determined using a FacsVantage SE flow cytometry system (Becton Dickinson, San Jose, Calif.) and a Cellular DNA Flow Cytometric Analysis Kit (Roche Applied Science, Indianapolis, Ind.). Cell cycle analysis was performed using Cylchred 1.0.2 software.

HEK293 cells [2] = experiment: HEK293 cell viability, CellTiter 96 Aqueous One Solution Cell Proliferation assay; conditions: Homo sapiens, HEK293, 48 h, read-out: EC50
Experimental: (§1) The effect of various doses of compounds 5a, 5a,b, and 9a on the viability of HEK293 cells was examined using the CellTiter 96 Aqueous One Solution Cell Proliferation assay (Promega). The HEK293 cells were cultured in DMEM media (Cellgro) or phenol red-free DMEM (Gibco) supplemented with 10% Fetal Bovine Serum (Tissue Culture Biologicals) and 1× Penicillin/Streptomycin/Glutamine (Gibco). The cells were grown at 37° C. with 5% CO2. HEK293 cells were seeded into each well of a 96-well plate (5000 cells/well) and incubated overnight to allow the cells to attach. The culture media was removed and replaced with 100 μl of phenol red-free media containing the compounds 5a, 5a,b, and 9a at various concentrations. The cells were allowed to grow in the presence of the compounds for 48 hrs. At the end of the treatment, 20 μl of CellTiter 96 Aqueous One Solution reagent was added directly into each well, and the cells were incubated at 37° C. for 2 hrs. This reagent converts to a form that absorbs light at 490 nm by living cells. Thus, absorbance at 490 nm is proportional to the number of viable cells. The 490 nm absorbance was measured on a BioRad plate reader. Control wells containing no cells were included in this assay to correct for background absorbance.

H4 (glioma) = experiment: Cell viability (cell proliferation assay), H4; conditions: 48 to 72 hr exposure
Experimental: as §1, with “HEK293” for “The effect of various doses of compounds 5a, 5a,b, and 9a on the viability of HEK293 cells was examined using the CellTiter 96 Aqueous One Solution Cell Proliferation assay (Promega). The HEK293 cells were cultured in DMEM media (Cellgro) or phenol red-free DMEM (Gibco) supplemented with 10% Fetal Bovine Serum (Tissue Culture Biologicals) and 1× Penicillin/Streptomycin/Glutamine (Gibco). The cells were grown at 37° C. with 5% CO2. HEK293”
(§2) The effect of compound 9a on the viability of cancer cell lines as well as dividing and non-dividing mouse Swiss3T3 cells was studied.
(§3) In particular, the cell proliferation assay, as described in Example 15, was used to test the effect of a 48 to 72 hr exposure of these cell lines to compound 9a at various concentrations.

[3] = test system: HeLa (cervical adenocarcinoma); experiment: Cell viability (cell proliferation assay), HeLa; conditions: Homo sapiens, 48 to 72 hr exposure
Experimental: as §1, with “HEK293” for “The effect of various doses of compounds 5a, 5a,b, and 9a on the viability of HEK293 cells was examined using the CellTiter 96 Aqueous One Solution Cell Proliferation assay (Promega). The HEK293 cells were cultured in DMEM media (Cellgro) or phenol red-free DMEM (Gibco) supplemented with 10% Fetal Bovine Serum (Tissue Culture Biologicals) and 1× Penicillin/Streptomycin/Glutamine (Gibco). The cells were grown at 37° C. with 5% CO2. HEK293”
as §2, §3

U937 (lymphoma) = experiment: Cell viability (cell proliferation assay), U937; conditions: Homo sapiens, U-937, 48 to 72 hr exposure
Experimental: as §1, with “HEK293” for “The effect of various doses of compounds 5a, 5a,b, and 9a on the viability of HEK293 cells was examined using the CellTiter 96 Aqueous One Solution Cell Proliferation assay (Promega). The HEK293 cells were cultured in DMEM media (Cellgro) or phenol red-free DMEM (Gibco) supplemented with 10% Fetal Bovine Serum (Tissue Culture Biologicals) and 1× Penicillin/Streptomycin/Glutamine (Gibco). The cells were grown at 37° C. with 5% CO2. HEK293”
as §2, §3

HL-60 (leukemia) = experiment: Cell viability (cell proliferation assay), HL-60; conditions: Homo sapiens, 48 to 72 hr exposure
Experimental: as §1, with “HEK293” for “The effect of various doses of compounds 5a, 5a,b, and 9a on the viability of HEK293 cells was examined using the CellTiter 96 Aqueous One Solution Cell Proliferation assay (Promega). The HEK293 cells were cultured in DMEM media (Cellgro) or phenol red-free DMEM (Gibco) supplemented with 10% Fetal Bovine Serum (Tissue Culture Biologicals) and 1× Penicillin/Streptomycin/Glutamine (Gibco). The cells were grown at 37° C. with 5% CO2. HEK293”
as §2, §3

[4] = HEK293, 0.1 μM, treated 16 to 24 hrs

COc1ccc2c(c1N)C(=O)O[C@@H]2[C@H]1c2c(cc3c(c2OC)OCO3)CCN1C [Compound 9a, 7-amino-6-methoxy-3-(4-methoxy-6-methyl-5,6,7,8-tetrahydro-[1,3]dioxolo[4,5-g]isoquinolin-5-yl)-3H-isobenzofuran-1-one]
Percent of Cells in G1 (HEK293 cells [1]; [4]): 1%
Percent of Cells in G2/M (HEK293 cells [1]; [4]): 92.1%
Percent of Cells in S (HEK293 cells [1]; [4]): 6.9%
concentration at which activity was observed (HEK293 cells [1]; HEK293, G2/M accumulation): 0.1 µM
accumulation of cells in G2/M (HEK293 cells [1]; HEK293, concentrations as in Table 1): ~90%
EC50 (HEK293 cells [2]): < 50 nM
EC50 (HEK293 cells [2]; text summary): < 1000 nM
EC50 (H4 (glioma)): < 50 nM
EC50 [3]: < 50 nM
EC50 (U937 (lymphoma)): < 50 nM
EC50 (HL-60 (leukemia)): < 50 nM
